From ChEMBL document CHEMBL5113520, “From a Cone Snail Toxin to a Competitive MC4R Antagonist” (J Med Chem, 2022)
Where a SMILES comes first, the peptide text is derived from it. Bridges are numbered along the chain shown (N, C = ends). The star is where a group is joined. Carbamoyl = NC(=O)*

Assays:
Format in all cases: cell-based
[1] = target: Melanocortin receptor 5 (Homo sapiens, UniProt P33032); test: Displacement of [125I]-NDP-alpha-MSH from human MC5R expressed in CHO cells by Topcount beta counter analysis
[2] = target: Melanocyte-stimulating hormone receptor (Homo sapiens, UniProt Q01726); test: Displacement of [125I]-NDP-alpha-MSH from human MC1R expressed in CHO cells by Topcount beta counter analysis
[3] = target: Melanocortin receptor 4 (Homo sapiens, UniProt P32245); test: Displacement of [125I]-NDP-alpha-MSH from human MC4R expressed in CHO cells by Topcount beta counter analysis
[4] = target: Melanocortin receptor 3 (Homo sapiens, UniProt P41968); test: Displacement of [125I]-NDP-alpha-MSH from human MC3R expressed in HEK293 cells by Topcount beta counter analysis
Chain of Melanocortin receptor 3 (P41968 whole entry): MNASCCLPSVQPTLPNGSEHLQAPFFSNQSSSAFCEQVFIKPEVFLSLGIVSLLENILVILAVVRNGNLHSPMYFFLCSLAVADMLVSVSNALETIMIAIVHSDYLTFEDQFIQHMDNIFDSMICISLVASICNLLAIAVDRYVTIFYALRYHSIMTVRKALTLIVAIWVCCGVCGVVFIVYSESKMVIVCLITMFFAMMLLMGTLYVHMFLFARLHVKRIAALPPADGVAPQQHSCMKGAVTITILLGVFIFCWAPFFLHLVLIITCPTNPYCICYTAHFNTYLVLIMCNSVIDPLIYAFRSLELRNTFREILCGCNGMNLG

Chain of Melanocyte-stimulating hormone receptor (Q01726 whole entry): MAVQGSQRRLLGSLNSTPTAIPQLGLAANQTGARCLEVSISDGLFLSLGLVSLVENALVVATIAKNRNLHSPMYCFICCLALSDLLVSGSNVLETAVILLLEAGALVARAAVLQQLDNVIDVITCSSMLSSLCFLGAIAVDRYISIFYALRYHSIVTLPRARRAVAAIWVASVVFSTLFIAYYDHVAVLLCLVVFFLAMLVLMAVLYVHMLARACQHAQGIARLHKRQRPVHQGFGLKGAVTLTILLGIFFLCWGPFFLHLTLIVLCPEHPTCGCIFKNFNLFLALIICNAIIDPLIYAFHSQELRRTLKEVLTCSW
Chain of Melanocortin receptor 5 (P33032 whole entry): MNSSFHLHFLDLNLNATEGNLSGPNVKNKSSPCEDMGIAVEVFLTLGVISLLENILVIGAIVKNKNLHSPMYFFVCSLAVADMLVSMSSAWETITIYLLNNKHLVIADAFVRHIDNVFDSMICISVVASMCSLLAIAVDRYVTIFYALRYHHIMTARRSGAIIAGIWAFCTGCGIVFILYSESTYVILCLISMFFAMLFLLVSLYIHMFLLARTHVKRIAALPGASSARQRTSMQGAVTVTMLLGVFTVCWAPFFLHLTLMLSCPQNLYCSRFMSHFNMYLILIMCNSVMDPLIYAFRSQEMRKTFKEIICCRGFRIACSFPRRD
Chain of Melanocortin receptor 4 (P32245 whole entry): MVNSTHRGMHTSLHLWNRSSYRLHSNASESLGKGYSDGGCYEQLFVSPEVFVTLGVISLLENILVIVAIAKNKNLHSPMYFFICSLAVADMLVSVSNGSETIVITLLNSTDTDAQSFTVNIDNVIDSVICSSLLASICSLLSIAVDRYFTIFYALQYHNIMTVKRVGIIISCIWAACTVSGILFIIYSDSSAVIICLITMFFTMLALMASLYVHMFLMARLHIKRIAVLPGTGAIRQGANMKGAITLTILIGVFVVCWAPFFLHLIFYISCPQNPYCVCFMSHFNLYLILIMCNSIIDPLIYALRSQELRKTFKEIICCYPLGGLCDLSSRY

Molecule: CC(C)C[C@H](NC(=O)[C@H](CCCCN)NC(=O)[C@H](Cc1ccccc1)NC(=O)[C@H](CCC(N)=O)NC(=O)[C@@H]1CSSC[C@H](NC(=O)[C@@H](Cc2ccc(O)cc2)NC(=O)[C@H](Cc2c[nH]cn2)NC(=O)[C@H](Cc2ccccc2)NC(=O)[C@@H](N)CC(C)C)C(=O)N[C@@H](CCC(N)=O)C(=O)N[C@@H](CCCCN)C(=O)N[C@@H](CCC(N)=O)C(=O)N[C@@H](CCCCN)C(=O)N2CCC[C@H]2C(=O)N2CCC[C@H]2C(=O)NCC(=O)N[C@@H](Cc2ccccc2)C(=O)N[C@@H](CCCCN)C(=O)NCC(=O)N[C@@H](CCCCN)C(=O)N[C@@H](Cc2ccccc2)C(=O)N1)C(=O)N[C@@H](CCCNC(=N)N)C(=O)N1CCC[C@H]1C(=O)N1CCC[C@H]1C(=O)O
- Ki ([1]; read-out: pKi (converted)): 25.7 nM
- Ki ([2]; read-out: pKi (converted)): 85.1 nM
- Ki ([3]; read-out: pKi (converted)): 6.92 nM
- Ki ([4]; read-out: pKi (converted)): 30.9 nM

Molecule: CC(C)C[C@H](NC(=O)[C@H](CCC(=O)O)NC(=O)[C@H](Cc1ccccc1)NC(=O)[C@H](CCC(N)=O)NC(=O)[C@H](CCC(N)=O)N1C(=O)[C@@H](NC(=O)[C@H](CCCCN)NC(=O)CNC(=O)[C@H](CCCCN)NC(=O)[C@H](Cc2ccccc2)NC(=O)CNC(=O)[C@@H]2CCCN2C(=O)[C@@H]2CCCN2C(=O)[C@H](CCCCN)NC(=O)[C@H](CCC(N)=O)NC(=O)[C@H](CCCCN)NC(=O)[C@H](CCC(N)=O)NC(=O)[C@H](CCC(N)=O)NC(=O)[C@H](Cc2ccc(O)cc2)NC(=O)[C@H](Cc2c[nH]cn2)NC(=O)[C@H](Cc2ccccc2)NC(=O)[C@@H](N)CC(C)C)Cc2ccccc21)C(=O)N[C@@H](CCCNC(=N)N)C(=O)N1CCC[C@H]1C(=O)N1CCC[C@H]1C(=O)O
- Ki ([3]; read-out: Ki): 91 nM
- Ki ([3]; read-out: pKi (converted)): 89.1 nM

Molecule: CC(C)C[C@H](NC(=O)[C@H](CCCCN)NC(=O)[C@H](Cc1ccccc1)NC(=O)[C@H](CCC(N)=O)NC(=O)[C@@H]1CSSC[C@H](NC(=O)[C@H](CCC(N)=O)NC(=O)[C@H](C)NC(=O)[C@H](CCC(N)=O)NC(=O)[C@H](C)NC(=O)[C@H](Cc2ccc(O)cc2)NC(=O)[C@H](Cc2c[nH]cn2)NC(=O)[C@H](Cc2ccccc2)NC(=O)[C@@H](N)CC(C)C)C(=O)N2CCC[C@H]2C(=O)N2CCC[C@H]2C(=O)NCC(=O)N[C@@H](Cc2ccccc2)C(=O)N[C@@H](CCCCN)C(=O)NCC(=O)N[C@@H](CCCCN)C(=O)N[C@@H](Cc2ccccc2)C(=O)N1)C(=O)N[C@@H](CCCNC(=N)N)C(=O)N1CCC[C@H]1C(=O)N1CCC[C@H]1C(=O)O (H-LFHYAQAQCPPGFKGKFCQFKLRPP-OH; disulfide 9-18)
- Ki ([3]; read-out: pKi (converted)): 245 nM

Molecule: CC(C)C[C@H](NC(=O)[C@H](CCCCN)NC(=O)[C@H](Cc1ccccc1)NC(=O)[C@H](CCC(N)=O)NC(=O)[C@@H]1CSSC[C@H](NC(=O)[C@H](CCC(N)=O)NC(=O)[C@H](C)NC(=O)[C@H](Cc2ccc(O)cc2)NC(=O)[C@H](Cc2c[nH]cn2)NC(=O)[C@H](Cc2ccccc2)NC(=O)[C@@H](N)CC(C)C)C(=O)N[C@@H](CCC(N)=O)C(=O)N[C@@H](C)C(=O)N2CCC[C@H]2C(=O)N2CCC[C@H]2C(=O)NCC(=O)N[C@@H](Cc2ccccc2)C(=O)N[C@@H](CCCCN)C(=O)NCC(=O)N[C@@H](CCCCN)C(=O)N[C@@H](Cc2ccccc2)C(=O)N1)C(=O)N[C@@H](CCCNC(=N)N)C(=O)N1CCC[C@H]1C(=O)N1CCC[C@H]1C(=O)O (H-LFHYAQCQAPPGFKGKFCQFKLRPP-OH; disulfide 7-18)
- Ki ([3]; read-out: pKi (converted)): 245 nM

Molecule: CC(C)C[C@H](NC(=O)[C@H](CCCCN)NC(=O)[C@H](Cc1ccccc1)NC(=O)[C@H](CCC(N)=O)NC(=O)[C@H](CSC(N)=O)NC(=O)[C@H](Cc1ccccc1)NC(=O)[C@H](CCCCN)NC(=O)CNC(=O)[C@H](CCCCN)NC(=O)[C@H](Cc1ccccc1)NC(=O)CNC(=O)[C@@H]1CCCN1C(=O)[C@@H]1CCCN1C(=O)[C@H](CCCCN)NC(=O)[C@H](CCC(N)=O)NC(=O)[C@H](CCCCN)NC(=O)[C@H](CCC(N)=O)NC(=O)[C@H](CSC(N)=O)NC(=O)[C@H](Cc1ccc(O)cc1)NC(=O)[C@H](Cc1cnc[nH]1)NC(=O)[C@H](Cc1ccccc1)NC(=O)[C@@H](N)CC(C)C)C(=O)N[C@@H](CCCNC(=N)N)C(=O)N1CCC[C@H]1C(=O)N1CCC[C@H]1C(=O)O (H-LFHYC(Carbamoyl)QKQKPPGFKGKFC(Carbamoyl)QFKLRPP-OH)
- Ki ([1]; read-out: pKi (converted)): 135 nM
- Ki ([2]; read-out: pKi (converted)): 110 nM
- Ki ([3]; read-out: pKi (converted)): 12.6 nM
- Ki ([4]; read-out: pKi (converted)): 37.2 nM

Molecule: CC(C)C[C@H](NC(=O)[C@H](CCCCN)NC(=O)[C@H](Cc1ccccc1)NC(=O)[C@H](CCC(N)=O)NC(=O)[C@@H]1CSSC[C@H](NC(=O)[C@H](Cc2ccc(O)cc2)NC(=O)[C@H](Cc2c[nH]cn2)NC(=O)[C@H](Cc2ccccc2)NC(=O)[C@@H](N)CC(C)C)C(=O)N[C@@H](CCC(N)=O)C(=O)N[C@@H](C)C(=O)N[C@@H](CCC(N)=O)C(=O)N[C@@H](C)C(=O)N2CCC[C@H]2C(=O)N2CCC[C@H]2C(=O)NCC(=O)N[C@@H](Cc2ccccc2)C(=O)N[C@@H](CCCCN)C(=O)NCC(=O)N[C@@H](CCCCN)C(=O)N[C@@H](Cc2ccccc2)C(=O)N1)C(=O)N[C@@H](CCCNC(=N)N)C(=O)N1CCC[C@H]1C(=O)N1CCC[C@H]1C(=O)O (H-LFHYCQAQAPPGFKGKFCQFKLRPP-OH; disulfide 5-18)
- Ki ([1]; read-out: pKi (converted)): 195 nM
- Ki ([2]; read-out: pKi (converted)): 912 nM
- Ki ([3]; read-out: pKi (converted)): 117 nM
- Ki ([4]; read-out: pKi (converted)): 170 nM

Molecule: CC(C)C[C@H](NC(=O)[C@H](CCCCN)NC(=O)[C@H](Cc1ccccc1)NC(=O)[C@H](CCC(N)=O)NC(=O)[C@@H]1CSSC[C@H](NC(=O)[C@H](CCC(N)=O)NC(=O)[C@@H]2CSSC[C@H](NC(=O)[C@H](Cc3ccc(O)cc3)NC(=O)[C@H](Cc3c[nH]cn3)NC(=O)[C@H](Cc3ccccc3)NC(=O)[C@@H](N)CC(C)C)C(=O)N[C@@H](CCC(N)=O)C(=O)N2)C(=O)N2CCC[C@H]2C(=O)N2CCC[C@H]2C(=O)NCC(=O)N[C@@H](Cc2ccccc2)C(=O)N[C@@H](CCCCN)C(=O)NCC(=O)N[C@@H](CCCCN)C(=O)N[C@@H](Cc2ccccc2)C(=O)N1)C(=O)N[C@@H](CCCNC(=N)N)C(=O)N1CCC[C@H]1C(=O)N1CCC[C@H]1C(=O)O (H-LFHYCQCQCPPGFKGKFCQFKLRPP-OH; disulfide 5-7, 9-18)
- Ki ([1]; read-out: Ki): 30 nM
- Ki ([1]; read-out: pKi (converted)): 28.8 nM
- Ki ([2]; read-out: Ki): 530 nM
- Ki ([2]; read-out: pKi (converted)): 513 nM
- Ki ([3]; read-out: Ki): 45 nM
- Ki ([3]; read-out: pKi (converted)): 41.7 nM
- Ki ([4]; read-out: Ki): 83 nM
- Ki ([4]; read-out: pKi (converted)): 69.2 nM

Molecule: CC(C)C[C@H](NC(=O)[C@H](CCCCN)NC(=O)[C@H](Cc1ccccc1)NC(=O)[C@H](CCC(N)=O)NC(=O)[C@@H]1CSSC[C@@H]2NC(=O)[C@H](CCC(N)=O)NC(=O)[C@@H](NC(=O)[C@H](Cc3ccc(O)cc3)NC(=O)[C@H](Cc3c[nH]cn3)NC(=O)[C@H](Cc3ccccc3)NC(=O)[C@@H](N)CC(C)C)CSSC[C@H](NC(=O)[C@H](CCC(N)=O)NC2=O)C(=O)N2CCC[C@H]2C(=O)N2CCC[C@H]2C(=O)NCC(=O)N[C@@H](Cc2ccccc2)C(=O)N[C@@H](CCCCN)C(=O)NCC(=O)N[C@@H](CCCCN)C(=O)N[C@@H](Cc2ccccc2)C(=O)N1)C(=O)N[C@@H](CCCNC(=N)N)C(=O)N1CCC[C@H]1C(=O)N1CCC[C@H]1C(=O)O (H-LFHYCQCQCPPGFKGKFCQFKLRPP-OH; disulfide 5-9, 7-18)
- Ki ([1]; read-out: Ki): 53 nM
- Ki ([1]; read-out: pKi (converted)): 33.9 nM
- Ki ([2]; read-out: Ki): 549 nM
- Ki ([2]; read-out: pKi (converted)): 617 nM
- Ki ([3]; read-out: Ki): 49 nM
- Ki ([3]; read-out: pKi (converted)): 44.7 nM
- Ki ([4]; read-out: Ki): 90 nM

Molecule: CC(C)C[C@H](NC(=O)[C@H](CCCCN)NC(=O)[C@H](Cc1ccccc1)NC(=O)[C@H](CCC(N)=O)NC(=O)[C@@H]1CSSC[C@H](NC(=O)[C@H](Cc2ccc(O)cc2)NC(=O)[C@H](Cc2c[nH]cn2)NC(=O)[C@H](Cc2ccccc2)NC(=O)[C@@H](N)CC(C)C)C(=O)N[C@@H](CCC(N)=O)C(=O)N[C@H]2CSSC[C@H](NC(=O)[C@H](CCC(N)=O)NC2=O)C(=O)N2CCC[C@H]2C(=O)N2CCC[C@H]2C(=O)NCC(=O)N[C@@H](Cc2ccccc2)C(=O)N[C@@H](CCCCN)C(=O)NCC(=O)N[C@@H](CCCCN)C(=O)N[C@@H](Cc2ccccc2)C(=O)N1)C(=O)N[C@@H](CCCNC(=N)N)C(=O)N1CCC[C@H]1C(=O)N1CCC[C@H]1C(=O)O (H-LFHYCQCQCPPGFKGKFCQFKLRPP-OH; disulfide 5-18, 7-9)
- Ki ([1]; read-out: Ki): 41 nM
- Ki ([1]; read-out: pKi (converted)): 28.8 nM
- Ki ([2]; read-out: Ki): 554 nM
- Ki ([2]; read-out: pKi (converted)): 490 nM
- Ki ([3]; read-out: Ki): 48 nM
- Ki ([3]; read-out: pKi (converted)): 43.7 nM
- Ki ([4]; read-out: Ki): 110 nM
- Ki ([4]; read-out: pKi (converted)): 97.7 nM

Molecule: Ac-LFHYQQKQKPPGFKGKFQQFKLRPP-OH
- Ki ([3]; read-out: Ki): 138 nM
- Ki ([3]; read-out: pKi (converted)): 135 nM

Molecule: H-AFHYQQKQKPPGFKGKFQQFKLRPP-OH
- Ki ([3]; read-out: Ki): 125 nM
- Ki ([3]; read-out: pKi (converted)): 123 nM

Molecule: H-FHYQQKQKPPGFKGKFQQFKLRPP-OH
- Ki ([3]; read-out: Ki): 334 nM
- Ki ([3]; read-out: pKi (converted)): 288 nM

Molecule: H-HYQQKQKPPGFKGKFQQFKLRPP-OH
- Ki ([3]; read-out: Ki): 2200 nM
- Ki ([3]; read-out: pKi (converted)): 2040 nM

Molecule: H-LAHYQQKQKPPGFKGKFQQFKLRPP-OH
- Ki ([3]; read-out: Ki): 236 nM

Molecule: H-LFHAQQKQKPPGFKGKFQQFKLRPP-OH
- Ki ([3]; read-out: Ki): 111 nM

Molecule: H-LFHYQQKQKPPGFAGKFQQFKLRPP-OH
- Ki ([3]; read-out: Ki): 54 nM

Molecule: H-LFHYQQKQKPPGFEGKFQQFKLRPP-OH
- Ki ([3]; read-out: Ki): 262 nM
- Ki ([3]; read-out: pKi (converted)): 257 nM

Molecule: H-LFHYQQKQKPPGFKGAFQQFKLRPP-OH
- Ki ([3]; read-out: Ki): 75 nM
- Ki ([3]; read-out: pKi (converted)): 72.4 nM

Molecule: H-LFHYQQKQKPPGFKGEFQQFKLRPP-OH
- Ki ([3]; read-out: Ki): 203 nM

Molecule: H-LFHYQQKQKPPGFKGKFQQF-OH
- Ki ([3]; read-out: Ki): 55 nM
- Ki ([3]; read-out: pKi (converted)): 53.7 nM

Molecule: H-LFHYQQKQKPPGFKGKFQQFKL-OH
- Ki ([3]; read-out: Ki): 29 nM
- Ki ([3]; read-out: pKi (converted)): 27.5 nM

Molecule: H-LFHYQQKQKPPGFKGKFQQFKLR-OH
- Ki ([3]; read-out: Ki): 14 nM
- Ki ([3]; read-out: pKi (converted)): 12.3 nM

Molecule: H-LFHYQQKQKPPGFKGKFQQFKLRPP-NH2
- Ki ([3]; read-out: Ki): 9 nM
- Ki ([3]; read-out: pKi (converted)): 8.13 nM

Molecule: H-YQQKQKPPGFKGKFQQFKLRPP-OH
- Ki ([3]; read-out: Ki): 1440 nM
- Ki ([3]; read-out: pKi (converted)): 1320 nM
